The target in one assay is T1, human GLP-1 receptor (Homo sapiens, UniProt P43220).
T1 construct: expressed in transfected cells; host or cells: BHK467-12A (tk-ts13) baby hamster kidney cells; purified plasma membranes
Kind of assay: Stimulation of cAMP formation in a cell line expressing the cloned human GLP-1 receptor. The class given is biochemical. The settings on record: cAMP production, purified plasma membranes from BHK467-12A (tk-ts13), AlphaScreen cAMP Assay Kit; read-out: Potency [EC50/nM].

Assay [1] has as its target human serum albumin (HSA) (Homo sapiens, UniProt P02768). Kind of assay: Albumin binding affinity, competition scintillation proximity assay (SPA).
Protocol: Streptavidin-SPA beads (GE Healthcare RPNQ0009) were incubated with biotinylated HSA for 5 hours. The beads were washed with buffer to remove unbound HSA. […] After 20 hours of gentle rocking at room temperature the plates were centrifuged and counted on a TopCounter.

Each structure is given as a SMILES string. pEC50: −log10 of the molar value. *1 amine or outer side, *2 acyl side, *3 side chain or, on linkers, in order; H or OH if unused. Where a SMILES comes first, the peptide text is derived from it. Side-chain parts run from the residue outwards. [ ]: non-standard residue; d: D form. The star is where a group is joined. X2 = O=C(O)CCCCCCCCCCCCCCCCC(=O)N[C@@H](CCC(=O)NCCOCCOCC(=O)NCCOCCOCC(=O)N[C@@H](CCCCN*)C(=O)O)C(=O)O; C20 diacid = O=C(O)CCCCCCCCCCCCCCCCCCC(=O)*; C18 diacid = O=C(O)CCCCCCCCCCCCCCCCC(=O)*; γGlu = O=C(O)[C@H](CCC(=O)[*:2])N[*:1]; βAsp = O=C(O)[C@H](CC(=O)[*:2])N[*:1]; NTA = O=C(O)CN(CC(=O)O)CC(=O)*; Dap = NC[C@H](N)C(=O)O; AEEA = NCCOCCOCC(=O)O; Aib = CC(C)(N)C(=O)O; Inp = O=C(O)C1CCNCC1

Chain of human serum albumin (HSA) (P02768 25-609): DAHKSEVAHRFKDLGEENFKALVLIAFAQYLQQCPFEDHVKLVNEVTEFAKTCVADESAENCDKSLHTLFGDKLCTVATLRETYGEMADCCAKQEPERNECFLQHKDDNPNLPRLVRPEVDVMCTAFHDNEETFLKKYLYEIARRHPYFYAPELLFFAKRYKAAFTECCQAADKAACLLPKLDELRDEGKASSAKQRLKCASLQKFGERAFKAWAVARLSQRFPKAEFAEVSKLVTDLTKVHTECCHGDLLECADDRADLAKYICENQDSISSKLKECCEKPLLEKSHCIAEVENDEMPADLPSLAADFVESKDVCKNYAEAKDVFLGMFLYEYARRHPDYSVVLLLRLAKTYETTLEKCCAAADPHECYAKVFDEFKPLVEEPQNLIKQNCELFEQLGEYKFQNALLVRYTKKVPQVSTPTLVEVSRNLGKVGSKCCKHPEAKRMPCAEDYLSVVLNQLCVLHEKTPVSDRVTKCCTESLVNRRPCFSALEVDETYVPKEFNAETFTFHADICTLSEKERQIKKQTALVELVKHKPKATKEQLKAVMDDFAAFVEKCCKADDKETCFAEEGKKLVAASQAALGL
T1 sequence (P43220 24-463): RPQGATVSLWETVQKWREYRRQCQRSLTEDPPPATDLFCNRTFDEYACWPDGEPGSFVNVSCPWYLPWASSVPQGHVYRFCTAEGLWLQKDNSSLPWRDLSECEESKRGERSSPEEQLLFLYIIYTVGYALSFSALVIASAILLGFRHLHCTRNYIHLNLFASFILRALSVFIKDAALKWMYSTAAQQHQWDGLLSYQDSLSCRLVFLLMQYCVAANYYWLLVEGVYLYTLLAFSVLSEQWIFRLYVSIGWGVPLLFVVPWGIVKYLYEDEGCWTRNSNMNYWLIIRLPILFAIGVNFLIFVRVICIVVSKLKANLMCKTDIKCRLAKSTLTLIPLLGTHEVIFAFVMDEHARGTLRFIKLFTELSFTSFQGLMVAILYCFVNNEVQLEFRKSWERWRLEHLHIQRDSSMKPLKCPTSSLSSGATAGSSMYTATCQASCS

Regarding `CC[C@H](C)[C@H](NC(=O)[C@H](Cc1ccccc1)NC(=O)[C@H](CCC(=O)O)NC(=O)[C@H](CCCNC(=N)N)NC(=O)[C@H](C)NC(=O)[C@H](C)NC(=O)[C@H](CCC(N)=O)NC(=O)[C@H](CCC(=O)O)NC(=O)[C@H](CCC(=O)O)NC(=O)[C@H](CC(C)C)NC(=O)[C@H](Cc1ccc(O)cc1)NC(=O)[C@H](CO)NC(=O)[C@H](CO)NC(=O)[C@@H](NC(=O)[C@H](CC(=O)O)NC(=O)[C@H](CO)NC(=O)[C@@H](NC(=O)[C@H](Cc1ccccc1)NC(=O)[C@@H](NC(=O)CNC(=O)[C@H](CCC(=O)O)NC(=O)[C@H](C)NC(=O)CCc1c[nH]cn1)[C@@H](C)O)[C@@H](C)O)C(C)C)C(=O)N[C@@H](C)C(=O)N[C@@H](Cc1c[nH]c2ccccc12)C(=O)N[C@@H](CC(C)C)C(=O)N[C@H](C(=O)N[C@@H](CCCNC(=N)N)C(=O)NCC(=O)N[C@@H](CCCNC(=N)N)C(=O)N[C@@H](CCCCNC(=O)COCCOCCNC(=O)CC[C@H](NC(=O)CC[C@H](NC(=O)CCCCCCCCCCCNC(=O)CCCS(=O)(=O)NC(=O)CCCCCCCCCCCCCCCc1nnn(C(C)(C)C)n1)C(=O)O)C(=O)O)C(=O)O)C(C)C` [Example 26, N-epsilon37-{2-[2-(2-{(S)-4-[(S)-4-(12-{4-[16-(2-tert-Butyl-2H-tetrazol-5-yl)-hexadecanoylsulfamoyl]butyrylamino}dodecanoylamino)-4-carboxybutyrylamino]-4-carboxybutyrylamino}ethoxy)ethoxy]acetyl}[DesaminoHis7,Glu22,Arg26,Arg34,Lys37] GLP-1 (7-37)], on human GLP-1 receptor, the EC50 was found to be 0.25 nM. As for `CC[C@H](C)[C@H](NC(=O)[C@H](Cc1ccccc1)NC(=O)[C@H](CCC(=O)O)NC(=O)[C@H](CCCNC(=N)N)NC(=O)[C@H](C)NC(=O)[C@H](C)NC(=O)[C@H](CCC(N)=O)NC(=O)[C@H](CCC(=O)O)NC(=O)[C@H](CCC(=O)O)NC(=O)[C@H](CC(C)C)NC(=O)[C@H](Cc1ccc(O)cc1)NC(=O)[C@H](CO)NC(=O)[C@H](CO)NC(=O)[C@@H](NC(=O)[C@H](CC(=O)O)NC(=O)[C@H](CO)NC(=O)[C@@H](NC(=O)[C@H](Cc1ccccc1)NC(=O)[C@@H](NC(=O)CNC(=O)[C@H](CCC(=O)O)NC(=O)C(C)(C)NC(=O)[C@@H](N)Cc1c[nH]cn1)[C@@H](C)O)[C@@H](C)O)C(C)C)C(=O)N[C@@H](C)C(=O)N[C@@H](Cc1c[nH]c2ccccc12)C(=O)N[C@@H](CC(C)C)C(=O)N[C@H](C(=O)N[C@@H](CCCNC(=N)N)C(=O)NCC(=O)N[C@@H](CCCNC(=N)N)C(=O)N[C@@H](CCCCNC(=O)CC[C@H](NC(=O)COCCOCCNC(=O)COCCOCCNC(=O)CCCCCCCCCCCCCCCCC(=O)O)C(=O)O)C(=O)O)C(C)C` [Example 38, N-epsilon-37-[(S)-4-carboxy-4-(2-{2-[2-(2-{2-[2-(17-carboxyheptadecanoylamino)ethoxy]ethoxy}acetylamino)ethoxy]ethoxy}acetylamino)butyryl] [Aib8,Glu22,Arg26,34,Lys37] GLP-1 (7-37)], the EC50 at human GLP-1 receptor was 0.07 nM. In the case of `CC[C@H](C)[C@H](NC(=O)[C@H](Cc1ccccc1)NC(=O)[C@H](CCC(=O)O)NC(=O)[C@H](CCCNC(=N)N)NC(=O)[C@H](C)NC(=O)[C@H](C)NC(=O)[C@H](CCC(N)=O)NC(=O)[C@H](CCC(=O)O)NC(=O)[C@H](CCC(=O)O)NC(=O)[C@H](CC(C)C)NC(=O)[C@H](Cc1ccc(O)cc1)NC(=O)[C@H](CO)NC(=O)[C@H](CO)NC(=O)[C@@H](NC(=O)[C@H](CC(=O)O)NC(=O)[C@H](CO)NC(=O)[C@@H](NC(=O)[C@H](Cc1ccccc1)NC(=O)[C@@H](NC(=O)CNC(=O)[C@H](CCC(=O)O)NC(=O)C(C)(C)NC(=O)[C@@H](N)Cc1c[nH]cn1)[C@@H](C)O)[C@@H](C)O)C(C)C)C(=O)N[C@@H](C)C(=O)N[C@@H](CCCCNC(=O)COCCOCCNC(=O)COCCOCCNC(=O)C[C@H](NC(=O)C1CCN(C(=O)CCCCCCCCCCCCCCCCCCC(=O)O)CC1)C(=O)O)C(=O)N[C@@H](CC(C)C)C(=O)N[C@H](C(=O)N[C@@H](CCCNC(=N)N)C(=O)NCC(=O)N[C@@H](CCCNC(=N)N)C(=O)NCC(=O)O)C(C)C` [Example 6, N-epsilon31-(2-{2-[2-(2-{2-[2-((S)-3-Carboxy-3-{[1-(19-carboxy-nonadecanoyl)piperidine-4-carbonyl]amino}propionylamino)ethoxy]ethoxy}acetylamino)ethoxy]ethoxy}acetyl)[Aib8,Glu22,Arg26,Lys31,Arg34]GLP-1-(7-37)] (H-H[Aib]EGTFTSDVSSYLEEQAAREFIAK([AEEA-AEEA-βAsp-Inp-C20 diacid])LVRGRG-OH), in assay [1], the pEC50 is 6.40 to 6.70.

Consider `CC[C@H](C)[C@H](NC(=O)[C@H](Cc1ccccc1)NC(=O)[C@H](CCC(=O)O)NC(=O)[C@H](CCCNC(=N)N)NC(=O)[C@H](C)NC(=O)[C@H](C)NC(=O)[C@H](CCC(N)=O)NC(=O)[C@H](CCC(=O)O)NC(=O)[C@H](CCC(=O)O)NC(=O)[C@H](CC(C)C)NC(=O)[C@H](Cc1ccc(O)cc1)NC(=O)[C@H](CO)NC(=O)[C@H](CO)NC(=O)[C@@H](NC(=O)[C@H](CC(=O)O)NC(=O)[C@H](CO)NC(=O)[C@@H](NC(=O)[C@H](Cc1ccccc1)NC(=O)[C@@H](NC(=O)CNC(=O)[C@H](CCC(=O)O)NC(=O)C(C)(C)NC(=O)[C@@H](N)Cc1c[nH]cn1)[C@@H](C)O)[C@@H](C)O)C(C)C)C(=O)N[C@@H](C)C(=O)N[C@@H](Cc1c[nH]c2ccccc12)C(=O)N[C@@H](CC(C)C)C(=O)N[C@H](C(=O)N[C@@H](CCCNC(=N)N)C(=O)NCC(=O)N[C@@H](CCCNC(=N)N)C(=O)NCCCC[C@H](NC(=O)COCCOCCNC(=O)COCCOCCNC(=O)CC[C@H](NC(=O)CCCCCCCCCCCCCCCCC(=O)O)C(=O)O)C(=O)O)C(C)C` [Example 28, N-alpha37-[2-(2-{2-[2-(2-{2-[(S)-4-Carboxy-4-(17-carboxy-heptadecanoylamino)-butyrylamino]-ethoxy}-ethoxy)-acetylamino]-ethoxy}-ethoxy)-acetyl] [Aib8,Glu22,Arg26,Arg34,epsilon-Lys37]GLP-1-(7-37)peptide] (H-H[Aib]EGTFTSDVSSYLEEQAAREFIAWLVRGR-X2), for which the pEC50 in assay [1] is 6.40 to 6.70.

For the molecule `CC[C@H](C)[C@H](NC(=O)[C@H](Cc1ccccc1)NC(=O)[C@H](CCC(=O)O)NC(=O)[C@H](CCCNC(=N)N)NC(=O)[C@@H](NC(=O)[C@H](C)NC(=O)[C@H](CCC(N)=O)NC(=O)[C@H](CCC(=O)O)NC(=O)[C@H](CCC(=O)O)NC(=O)[C@H](CC(C)C)NC(=O)[C@H](Cc1ccc(O)cc1)NC(=O)[C@H](CO)NC(=O)[C@H](CO)NC(=O)[C@@H](NC(=O)[C@H](CC(=O)O)NC(=O)[C@H](CO)NC(=O)[C@@H](NC(=O)[C@H](Cc1ccccc1)NC(=O)[C@@H](NC(=O)CNC(=O)[C@H](CCC(=O)O)NC(=O)C(C)(C)NC(=O)[C@@H](N)Cc1c[nH]cn1)[C@@H](C)O)[C@@H](C)O)C(C)C)C(C)C)C(=O)N[C@@H](C)C(=O)N[C@@H](CCCCNC(=O)COCCOCCNC(=O)COCCOCCNC(=O)CC[C@H](NC(=O)CCCCCCCCCCCCCCCCC(=O)O)C(=O)O)C(=O)N[C@@H](CC(C)C)C(=O)N[C@H](C(=O)N[C@@H](CNC(=O)CN(CC(=O)O)CC(=O)O)C(N)=O)C(C)C` [Example 37, N-epsilon31-{2-(2-{2-[2-(2-{2-[4-Carboxy-4-(17-carboxy-heptadecanoylamino)butyrylamino]ethoxy}ethoxy)acetylamino]ethoxy}ethoxy)acetyl}-N-beta34-(2-(bis-carboxymethylamino)acetyl)[Aib8,Glu22,Val25,Arg26,Lys31, Dap34] GLP-1(7-34) amide] (H-H[Aib]EGTFTSDVSSYLEEQAVREFIAK([AEEA-AEEA-γGlu-C18 diacid])LV[Dap](NTA)-NH2), in assay [1], the pEC50 was 6.70 to 6.82.

Values taken from US9409966B2, “Glucagon-like peptide-1 derivatives and their pharmaceutical use” (priority 2007, dated 2016).
